Among the test systems are OVCAR-5; SK-MEL-5; COLO 205; SK-MEL-28; EKVX; OVCAR-4; UACC-257; SN12C; SW-620; NCI-H226; UO-31; SNB-19; CCRF-CEM; SK-MEL-2.
What all share (assay): NCI anticancer screen, dose series, 48 h

Structures are written as SMILES.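 Five compound concentrations were applied to cells in 96-well plates for 48 hours; endpoints were derived by simple linear interpolation of the resulting dose-response curve. GI50 is the concentration that inhibits growth by half.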 Activity calls are given as the source filed them. No stated cut-off is given here; in the data, active = GI50 up to about 1.1 µM and inactive = higher.

The record followed here is ChEMBL document CHEMBL1201862, “PubChem BioAssay data set” (2004).

With `Cn1cnc([N+](=O)[O-])c1Sc1nc2cc(Cl)c(F)cc2[nH]1`, the GI50 in the assay on OVCAR-5 is 16.8 µM (inactive); in the assay with SK-MEL-5, 11.7 µM (inactive); in the assay on COLO 205, 6.43 µM (inactive); with SK-MEL-28 it was 13.5 µM (inactive); in the assay with EKVX it was 1.38 µM (inactive); with OVCAR-4, 4.34 µM (inactive). The GI50 in the assay with UACC-257 was 11.6 µM (inactive); in the assay on SN12C it was 14.1 µM (inactive); with SW-620 it was 5.73 µM (inactive); with NCI-H226, 9.55 µM (inactive); with UO-31, 11.3 µM (inactive); with SNB-19, 26.4 µM (inactive).

As for `COc1cc2c([C@@H](OC(=O)c3ccccc3)c3ccc4c(c3)OCO4)nccc2c(OC)c1OC`, the GI50 with OVCAR-5 is 76.9 µM (inactive); in the assay with SK-MEL-5, 17.9 µM (inactive); with COLO 205, 78.7 µM (inactive); in the assay on EKVX, 43.6 µM (inactive); in the assay with OVCAR-4, 18.7 µM (inactive); in the assay on UACC-257, 38.4 µM (inactive). Further, the GI50 with SN12C was 38.5 µM (inactive); in the assay on SW-620, > 100 µM (inactive); with CCRF-CEM, 28.6 µM (inactive); in the assay with NCI-H226, 23.5 µM (inactive); with UO-31 it was 2.7 µM (inactive); in the assay with SNB-19, 93.8 µM (inactive).

Regarding `O=c1[nH][nH]c(=O)[nH]1`, the GI50 with OVCAR-5, in the assay with SK-MEL-2, in the assay on SK-MEL-5, in the assay with COLO 205, in the assay on SK-MEL-28 and in the assay with EKVX was > 100 µM (inactive) each time. Moreover, the GI50 in the assay on OVCAR-4, in the assay with UACC-257, in the assay on SW-620, with CCRF-CEM, in the assay with NCI-H226 and in the assay with UO-31 was > 100 µM (inactive) each time. The GI50 with SNB-19 is > 100 µM (inactive).

In the case of `N#CC(C(=O)/C(=N/N)C(C#N)c1ccccc1)c1ccccc1` (configuration not stated), the GI50 with OVCAR-5, in the assay on SK-MEL-2, with SK-MEL-5, in the assay on SK-MEL-28, in the assay with EKVX and in the assay on OVCAR-4 was > 100 µM (inactive) each time. Besides, the GI50 in the assay on UACC-257, in the assay on SN12C, in the assay with SW-620, with CCRF-CEM, in the assay on NCI-H226 and in the assay with UO-31 was > 100 µM (inactive) each time. In the assay on SNB-19, the GI50 was > 100 µM (inactive).

Consider `CC12CCC(=O)N1c1cccnc1N2` (configuration not stated), for which the GI50 with OVCAR-5, in the assay on SK-MEL-2, in the assay on SK-MEL-5, in the assay with COLO 205, in the assay with SK-MEL-28 and in the assay with EKVX was > 100 µM (inactive) throughout. Also, the GI50 in the assay with OVCAR-4, in the assay with UACC-257, in the assay with SN12C, in the assay with SW-620, in the assay on CCRF-CEM and with NCI-H226 was > 100 µM (inactive) throughout. The GI50 in the assay with UO-31 is > 100 µM (inactive).

Regarding `CN(C)CCNC(=O)c1ccc(Cl)c2c(Nc3ccc(S(N)(=O)=O)cc3)c3ccccc3nc12`, the GI50 in the assay on OVCAR-5 is 2.95 µM (inactive); in the assay on SK-MEL-2, 1.75 µM (inactive); in the assay on SK-MEL-5 it was 2.49 µM (inactive); in the assay with COLO 205, 0.61 µM (active); in the assay with SK-MEL-28, 2.67 µM (inactive); in the assay with EKVX it was 5.62 µM (inactive). The GI50 with OVCAR-4 is 1.93 µM (inactive); with UACC-257 it was 3.44 µM (inactive); with SN12C, 1.12 µM (active); in the assay on SW-620, 0.173 µM (active); in the assay on NCI-H226, 1.45 µM (inactive); in the assay on UO-31, 2.38 µM (inactive). Further, the GI50 with SNB-19 is 1.84 µM (inactive).

For the compound `c1cncc(C2c3[nH]c4ccccc4c3CCN2CCN2CCCCC2)c1` (configuration not stated), the GI50 with OVCAR-5 was > 100 µM (inactive); in the assay with SK-MEL-5, > 100 µM (inactive); in the assay on SK-MEL-28 it was 46.7 µM (inactive); in the assay on EKVX, > 100 µM (inactive); in the assay on OVCAR-4, > 100 µM (inactive); in the assay on UACC-257, 32.9 µM (inactive). The GI50 is > 100 µM (inactive) with SN12C; > 100 µM (inactive) in the assay on SW-620; 56.4 µM (inactive) in the assay on CCRF-CEM; 38.3 µM (inactive) in the assay on UO-31; > 100 µM (inactive) in the assay on SNB-19.

On to `N#C/C(=C1\OC(=N)C(c2ccc(Cl)cc2Cl)C1=O)c1ccc(Cl)cc1Cl` (configuration not stated), for which the GI50 in the assay with OVCAR-5 was > 100 µM (inactive); in the assay on SK-MEL-2, > 100 µM (inactive); in the assay on SK-MEL-5 it was > 100 µM (inactive); in the assay with COLO 205, > 100 µM (inactive); with SK-MEL-28, > 100 µM (inactive); in the assay on EKVX, 24.2 µM (inactive). Moreover, the GI50 in the assay with OVCAR-4 was > 100 µM (inactive); in the assay with UACC-257 it was > 100 µM (inactive); in the assay with SN12C it was > 100 µM (inactive); in the assay with SW-620, > 100 µM (inactive); in the assay with NCI-H226 it was > 100 µM (inactive); in the assay on UO-31 it was 56.6 µM (inactive). Further, the GI50 in the assay on SNB-19 is > 100 µM (inactive).

As for `COc1cc(C(=O)C/C(CCC(=O)Nc2ccc(Cl)cc2Cl)=N/Nc2nnc(C)n2N)ccc1O`, the GI50 with OVCAR-5 is > 100 µM (inactive); in the assay with SK-MEL-2, > 100 µM (inactive); with SK-MEL-5 it was > 100 µM (inactive); in the assay with COLO 205 it was > 100 µM (inactive); in the assay with SK-MEL-28 it was > 100 µM (inactive); in the assay with EKVX, 67.1 µM (inactive). Moreover, the GI50 with UACC-257, in the assay on SN12C, with SW-620, in the assay with CCRF-CEM, with NCI-H226 and in the assay with UO-31 was > 100 µM (inactive) each time. Also, the GI50 in the assay with SNB-19 was > 100 µM (inactive).

Regarding `CCc1ccc(Nc2ccc([N+](=O)[O-])cc2[N+](=O)[O-])cc1`, the GI50 in the assay with OVCAR-5 was > 100 µM (inactive); with SK-MEL-2 it was > 100 µM (inactive); in the assay with SK-MEL-5 it was 38.6 µM (inactive); with SK-MEL-28, > 100 µM (inactive); in the assay with EKVX it was 75.9 µM (inactive); with OVCAR-4, 34.5 µM (inactive). Moreover, the GI50 in the assay with UACC-257 is 67.8 µM (inactive); in the assay with SW-620 it was > 100 µM (inactive); with CCRF-CEM it was 35.2 µM (inactive); with NCI-H226 it was 34.2 µM (inactive); in the assay with UO-31 it was 26.2 µM (inactive).

With `CNC(SC)=C1C(=O)OC(C)(C)OC1=O`, the GI50 with OVCAR-5 is > 100 µM (inactive); in the assay with SK-MEL-2, 37.1 µM (inactive); in the assay with SK-MEL-5, > 100 µM (inactive); in the assay on COLO 205, 45.8 µM (inactive); in the assay with SK-MEL-28, > 100 µM (inactive); in the assay with EKVX, > 100 µM (inactive). Besides, the GI50 in the assay on UACC-257 is > 100 µM (inactive); in the assay with SN12C, > 100 µM (inactive); in the assay with SW-620, 20 µM (inactive); in the assay on CCRF-CEM, > 100 µM (inactive); with NCI-H226 it was > 100 µM (inactive); in the assay on UO-31, > 100 µM (inactive). Further, the GI50 with SNB-19 was > 100 µM (inactive).

As to `CC(O)c1ccc[n+](Cc2ccccc2)c1` (configuration not stated), the GI50 in the assay on OVCAR-5, in the assay on SK-MEL-2, in the assay with SK-MEL-5, with COLO 205, in the assay on SK-MEL-28 and in the assay on EKVX was > 400 µM (inactive) throughout. The GI50 in the assay on UACC-257, in the assay on SN12C, in the assay with SW-620, in the assay on CCRF-CEM, in the assay with NCI-H226 and in the assay on SNB-19 was > 400 µM (inactive) in each case.

As for `O=C1c2ccccc2C(=O)C2C3c4ccccc4C(c4ccccc43)C12` (configuration not stated), the GI50 with COLO 205 was 45 µM (inactive); in the assay on SK-MEL-28, 29.8 µM (inactive); in the assay on EKVX, 14.7 µM (inactive); in the assay on UACC-257, 23.7 µM (inactive); in the assay on SN12C, 23.9 µM (inactive); with SW-620, > 100 µM (inactive). Further, the GI50 with CCRF-CEM was 10.7 µM (inactive); in the assay on NCI-H226, 77.3 µM (inactive); with UO-31, 21.8 µM (inactive); with SNB-19 it was 26.9 µM (inactive).

As for `COC(=O)c1cc2cc(OC)c(OC)cc2cc(C(=O)OC)c1=O`, the GI50 in the assay on OVCAR-5, with SK-MEL-2, in the assay on SK-MEL-5, in the assay on COLO 205, with EKVX and with OVCAR-4 was > 100 µM (inactive) in each case. In addition, the GI50 in the assay with UACC-257 was > 100 µM (inactive); in the assay on SN12C it was > 100 µM (inactive); in the assay on SW-620, 35.3 µM (inactive); with CCRF-CEM, > 100 µM (inactive); in the assay with UO-31, > 100 µM (inactive); with SNB-19, > 100 µM (inactive).

As for `COc1ccc(C2=NN(c3ccccc3)C[N+](c3ccc(C)cc3)=N2)cc1`, the GI50 in the assay on OVCAR-5 was 29.9 µM (inactive); with SK-MEL-5, > 10 µM (inactive); with COLO 205, 31.3 µM (inactive); in the assay with SK-MEL-28, 58.9 µM (inactive); with EKVX, 44.3 µM (inactive); in the assay with OVCAR-4, 13.2 µM (inactive). Moreover, the GI50 was > 100 µM (inactive) in the assay with UACC-257; 66.5 µM (inactive) with SN12C; 25.6 µM (inactive) in the assay on SW-620; 19.3 µM (inactive) in the assay with CCRF-CEM; 55.3 µM (inactive) in the assay with NCI-H226; 38.3 µM (inactive) with UO-31. Further, in the assay with SNB-19, the GI50 was 34.1 µM (inactive).

Consider `CCOC(=O)/C(=C/c1cccc(C#N)c1)N(CC)CC`, for which the GI50 in the assay on OVCAR-5, with SK-MEL-2, with SK-MEL-5, with COLO 205, in the assay on SK-MEL-28 and with EKVX was > 100 µM (inactive) each time. For the same compound, the GI50 with OVCAR-4, in the assay with UACC-257, in the assay with SN12C, in the assay on SW-620, with CCRF-CEM and in the assay on NCI-H226 was > 100 µM (inactive) throughout. For the same compound, in the assay on UO-31, the GI50 is > 100 µM (inactive).
